Data published in patent publication US12685726B2, “Sulfoximines as inhibitors of NaV1.8” (Gruenenthal GmbH, priority 2022, dated 2026).

Target: T1, human NaV 1.8 (Homo sapiens, UniProt Q9Y5Y9)
T1 construct: expressed in transfected cells; host or cells: HEK (recombinant cell line)
Test: Automated whole-cell patch clamp (Qube384) voltage-clamp recordings of sodium currents in HEK-NaV1.8 cell line
Assay type: cell-based
Conditions: read-out: Potency category (human NaV 1.8 IC50)
Procedure: Electrophysiology: Voltage-Clamp Recordings
The following NaV1.8 recombinant cell line was used for recordings: HEK-NaV1.8 (NM_006514.1) with b3 (NM_018400.3).
Sodium currents were measured using the patch clamp technique in the whole-cell configuration using the Qube384 (Sophion A/S, Copenhagen, Denmark) automated voltage clamp platform. “Multi hole” plates were used for the cell line expressing NaV1.8 while “single hole” plates were used for the recombinant cell lines expressing the other subtypes. Appropriate filters (for minimum seal resistance and minimum current size) and series resistance compensation (for high quality sodium channel recordings) were applied. Data was collected at ambient room temperature or 19° C.
The recording extracellular solution contained (in mM): NaCl 145 mM, KCl 4 mM, CaCl2 2 mM, MgCl2 1 mM, HEPES 10 mM, Glucose 10 mM, pH 7.4 (NaOH). The intracellular recording solution contained (in mM): CsF 120 mM, CsCl 20 mM, NaCl 10 mM, EGTA 10 mM, HEPES 10 mM, pH 7.2 (CsOH). Currents were recorded at 25 kHz sampling frequency and filtered at 5 kHz. Series resistance compensation was applied at 65%.
Vehicle (VEH) is the control condition where cells are exposed to 0.3% DMSO without compound. All runs include VEH controls being exposed to the same voltage protocols to assess non-compound related phenomena such as run down and then used to isolate compound dependent effects on currents.
To check for state-dependent inhibition, the following voltage-sequence was applied every 20 seconds:
From a resting membrane potential of −120 mV, the first test pulse (P1; 20 ms to −10 mV) was applied to check for channels in the Resting State followed by a brief recovery (100 ms to −120 mV), then holding the membrane voltage to V1/2 (4 seconds at voltage to obtain half the channel at Rest and half Inactivated) with a subsequent second test pulse (P2; 20 ms to −10 mV) to check for channels in the Inactivated State, followed by another brief recovery (20 ms to −120 mV) and a final third test pulse (P3; 20 ms to −10 mV) to check for recovered channels.
To check for frequency-dependent inhibition, a 10 Hz protocol and a 20 Hz protocol were applied; namely,
From a resting membrane potential of −120 mV, 40-pulses (10 ms to −10 mV) was applied at 10 Hz (at 100 ms between pulses) and then at 20 Hz (at 50 ms between pulses).
Each parameter was recorded (P1, P2, P3, P40 from 10 Hz and P40 from 20 Hz) during a control period (lasting 5 minutes) when establishing the baseline and during compound period (lasting ~12 minutes) when test compound (or vehicle) was applied. For each parameter, the value at the end of the compound period was normalized to the vehicle baseline; as follows
To adjust for any variance in the Na^+ current signal during the compound period (owing to cumulative inactivation independent of compound or shifts in biophysics over time), a dedicated segment of the recording wells in each 384 plate were dedicated to having only vehicle exposure. These vehicle-only recordings were used to correct for any apparent “run-up” or “run-down” in the experiment.
The adjusted inhibition was calculated as follows: […]
Percent inhibition was determined and IC50 values were calculated using a 4 parameter logistic model within XLFit Software (IDBS, Boston MA): F
[formula] where A and B are the maximal and minimum inhibition respectively, C is the IC50 concentration and D is the (Hill) slope.

T1 sequence (Q9Y5Y9 whole entry): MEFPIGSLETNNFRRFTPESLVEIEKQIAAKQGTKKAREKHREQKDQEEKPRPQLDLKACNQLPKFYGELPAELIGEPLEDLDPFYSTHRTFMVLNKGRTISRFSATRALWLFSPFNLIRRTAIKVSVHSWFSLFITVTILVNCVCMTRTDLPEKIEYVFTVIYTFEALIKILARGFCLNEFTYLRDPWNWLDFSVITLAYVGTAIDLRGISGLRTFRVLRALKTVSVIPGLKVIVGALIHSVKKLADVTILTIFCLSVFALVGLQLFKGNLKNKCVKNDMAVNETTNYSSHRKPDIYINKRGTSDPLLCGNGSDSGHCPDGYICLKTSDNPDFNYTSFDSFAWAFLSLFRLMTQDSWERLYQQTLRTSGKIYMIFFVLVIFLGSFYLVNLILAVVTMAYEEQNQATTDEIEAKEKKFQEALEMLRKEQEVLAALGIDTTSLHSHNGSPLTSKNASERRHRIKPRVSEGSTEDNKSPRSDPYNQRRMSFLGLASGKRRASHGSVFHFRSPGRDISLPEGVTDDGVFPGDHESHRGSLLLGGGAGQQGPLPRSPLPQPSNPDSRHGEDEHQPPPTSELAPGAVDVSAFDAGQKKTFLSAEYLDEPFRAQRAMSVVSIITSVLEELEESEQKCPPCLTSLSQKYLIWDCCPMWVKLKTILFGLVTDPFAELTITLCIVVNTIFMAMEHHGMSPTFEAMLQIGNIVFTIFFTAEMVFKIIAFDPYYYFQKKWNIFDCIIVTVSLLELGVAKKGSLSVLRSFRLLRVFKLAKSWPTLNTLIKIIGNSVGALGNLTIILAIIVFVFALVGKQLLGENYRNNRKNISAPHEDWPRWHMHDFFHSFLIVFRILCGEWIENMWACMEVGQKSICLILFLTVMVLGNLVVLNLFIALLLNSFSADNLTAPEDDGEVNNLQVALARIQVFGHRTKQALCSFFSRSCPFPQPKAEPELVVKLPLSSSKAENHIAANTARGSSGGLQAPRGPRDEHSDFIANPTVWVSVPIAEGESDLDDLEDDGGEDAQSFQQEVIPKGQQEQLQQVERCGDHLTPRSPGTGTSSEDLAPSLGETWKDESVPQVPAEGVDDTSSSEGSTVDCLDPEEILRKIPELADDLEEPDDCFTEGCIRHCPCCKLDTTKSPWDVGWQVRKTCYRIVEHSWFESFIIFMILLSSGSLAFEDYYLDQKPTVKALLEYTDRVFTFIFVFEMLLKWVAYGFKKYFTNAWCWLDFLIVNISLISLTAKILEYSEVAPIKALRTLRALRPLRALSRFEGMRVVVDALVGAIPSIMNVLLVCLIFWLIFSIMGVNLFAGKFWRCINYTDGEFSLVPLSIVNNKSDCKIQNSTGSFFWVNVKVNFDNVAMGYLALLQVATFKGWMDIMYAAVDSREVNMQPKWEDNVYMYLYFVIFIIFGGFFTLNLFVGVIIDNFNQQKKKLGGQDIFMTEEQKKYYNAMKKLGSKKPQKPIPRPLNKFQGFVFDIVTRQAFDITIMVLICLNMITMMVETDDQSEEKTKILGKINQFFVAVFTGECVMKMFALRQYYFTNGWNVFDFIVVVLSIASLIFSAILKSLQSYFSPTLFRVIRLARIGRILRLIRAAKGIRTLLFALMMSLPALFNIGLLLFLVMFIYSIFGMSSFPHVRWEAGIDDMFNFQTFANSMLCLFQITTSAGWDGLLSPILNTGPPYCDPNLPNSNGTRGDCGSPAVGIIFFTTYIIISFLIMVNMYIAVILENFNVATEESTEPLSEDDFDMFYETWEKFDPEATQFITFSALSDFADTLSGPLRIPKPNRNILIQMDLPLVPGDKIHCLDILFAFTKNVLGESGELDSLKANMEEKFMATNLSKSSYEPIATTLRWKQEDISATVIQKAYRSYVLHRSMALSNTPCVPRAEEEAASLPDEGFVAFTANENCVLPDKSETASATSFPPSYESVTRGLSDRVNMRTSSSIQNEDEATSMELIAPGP

IC50 | Compound
≤ 100 nM | CC1(Cn2nc(C3CC3)c(C(F)(F)F)c2C(=O)Nc2cnnc(S(C)(=N)=O)c2)CC(F)(F)C1 (single isomer, unassigned) [Example 47a, 3-cyclopropyl-1-((3,3-difluoro-1-methylcyclobutyl)methyl)-N-(6-(S-methylsulfonimidoyl)pyridazin-4-yl)-4-(trifluoromethyl)-1H-pyrazole-5-carboxamide]
≤ 100 nM | CS(=N)(=O)c1cc(NC(=O)c2c(C(F)(F)F)c(C3CC3)nn2CC23CC(CC2(F)F)C3)ccn1 (single isomer, unassigned) [Example 103b, 3-cyclopropyl-1-((2,2-difluorobicyclo[2.1.1]hexan-1-yl)methyl)-N-(2-(S-methylsulfonimidoyl)pyridin-4-yl)-4-(trifluoromethyl)-1H-pyrazole-5-carboxamide]
≤ 100 nM | C[C@@]1(Cn2nc(C3CC3)c(C(F)(F)F)c2C(=O)Nc2ccnc([S@@](C)(=N)=O)c2)CC(F)(F)C12CC2 (single isomer, unassigned) [Example 92d, 3-cyclopropyl-1-((6,6-difluoro-4-methylspiro[2.3]hexan-4-yl)methyl)-N-(2-(S-methylsulfonimidoyl)pyridin-4-yl)-4-(trifluoromethyl)-1H-pyrazole-5-carboxamide]
≤ 100 nM | CC1(Cn2nc(C3(C#N)CC3)c(C(F)(F)F)c2C(=O)Nc2ccnc(S(C)(=N)=O)c2)CC(F)(F)C1 (single isomer, unassigned) [Example 68b, 3-(1-cyanocyclopropyl)-1-((3,3-difluoro-1-methylcyclobutyl)methyl)-N-(2-(S-methylsulfonimidoyl)pyridin-4-yl)-4-(trifluoromethyl)-1H-pyrazole-5-carboxamide]
≤ 100 nM | CC1(Cn2nc(C3(F)CC3)c(C(F)(F)F)c2C(=O)Nc2ccc(F)c(S(C)(=N)=O)c2)CC(F)(F)C1 (single isomer, unassigned) [Example 126b, 1-((3,3-Difluoro-1-methylcyclobutyl)methyl)-N-(4-fluoro-3-(S-methylsulfonimidoyl)phenyl)-3-(1-fluorocyclopropyl)-4-(trifluoromethyl)-1H-pyrazole-5-carboxamide]

Continued, compound first:

Compound | IC50
CS(=N)(=O)c1cc(NC(=O)c2c(C(F)(F)F)c(C34CC(C3)C4)nn2CC2C[C@@H]2C(F)(F)F)ccn1 (stereo partly shown) [Example 147] | ≤ 100 nM
Cc1c(C(C)(F)F)nn(C[C@H]2C[C@@H](C(F)(F)F)C2)c1C(=O)Nc1ccnc(S(C)(=N)=O)c1 (single isomer, unassigned) [Example 31b, 3-(1,1-difluoroethyl)-4-methyl-N-(2-(S-methylsulfonimidoyl)pyridin-4-yl)-1-(((cis)-3-(trifluoromethyl)cyclobutyl)methyl)-1H-pyrazole-5-carboxamide] | ≤ 100 nM
CC1(Cn2nc(C3(F)CC3)c(C(F)F)c2C(=O)Nc2cccc(S(C)(=N)=O)c2)CC(F)(F)C1 (single isomer, unassigned) [Example 135a, 1-((3,3-Difluoro-1-methylcyclobutyl)methyl)-4-(difluoromethyl)-3-(1-fluorocyclopropyl)-N-(3-(S-methylsulfonimidoyl)phenyl)-1H-pyrazole-5-carboxamide] | ≤ 100 nM
C[S@@](=N)(=O)c1cccc(NC(=O)c2c(C(F)(F)F)c(C3(F)CC3)nn2CC2C[C@@H]2C(F)(F)F)c1 (single isomer, unassigned) [Example 134a, 3-(1-Fluorocyclopropyl)-N-(3-(S-methylsulfonimidoyl)phenyl)-4-(trifluoromethyl)-1-(((trans)-2-(trifluoromethyl)cyclopropyl)methyl)-1H-pyrazole-5-carboxamide] | ≤ 100 nM
CC1(Cn2nc(C34CC(C3)C4)c(C(F)F)c2C(=O)Nc2ccnc(S(C)(=N)=O)c2)CC(F)(F)C1 (single isomer, unassigned) [Example 137a, 3-(Bicyclo[1.1.1]pentan-1-yl)-1-((3,3-difluoro-1-methylcyclobutyl)methyl)-4-(difluoromethyl)-N-(2-(S-methylsulfonimidoyl)pyridin-4-yl)-1H-pyrazole-5-carboxamide] | ≤ 100 nM
